Data as given in PMC12491715 (Acta Pharmaceutica Sinica. B, 2025).
“And” between values parts separate entries of the source, which are not always exact repeats. Identical values can stand only once. Like-named read-outs stand apart in the source and are kept apart here.

Experiments:
BChE = molecular target: T1, BChE (Mus musculus, UniProt Q03311); test: Cholinesterase inhibition upon repeated dosing, serum BChE; format: in vivo, C57BL/6JRccHsd mice; details: for remaining activity at 1 mg/kg / remaining activity at 5 mg/kg: mouse, po
T1 construct: from tissue; host or cells: mouse serum (C57BL/6JRccHsd)
Text: The 12 mice used in this pilot study were 9–14 months old male wild-type C57BL/6JRccHsd mice bred in the Laboratory of Animal Genomics at the Faculty of Veterinary Medicine, University of Ljubljana, or purchased from Envigo RMS Holding Corp. Mice were conventionally bred in open polycarbonate cages (Tecniplast, Buguggiate, Italy) and provided with wood chip bedding (Lignocel®, Rettenmaier and Sons, Germany). Mice were kept under standard conditions, including a 12:12 dark–light cycle (LED, CCT 3000 k, with no more than 25 lux above the cage), a temperature range of 21–24 °C, and humidity between 50%–60%. They were fed irradiated rodent diet (Teklad global 16% protein rodent diet®, BN 2916, Envigo, Udine, Italy) and had access to drinkable tap water ad libitum. Due to the nature of this pilot study, the mice were housed individually. The experimental design was evaluated by the National Ethics Committee for Animal Experiments and approved by the Veterinary Administration of the Republic of Slovenia (document no. U34401-10/2021/8, with amendments U34401-10/2021/13 and U34401-10/2021/1).
Before the start of study, blood was drawn from the submandibular vein (facial vein) of the animals under isoflurane inhalation anesthesia (Isoflurin®, VetPharma, Spain) using a 5 mm lancet (Goldenrod Animal Sterile, MEDIpoint, Inc., NY, USA), collected in a microtube (Eppendorf, Safe-Lock tube, 0.5 mL, Eppendorf AG, Germany) and allowed to clot. After approximately 1 h, the blood was centrifuged at 6000 × g for 15 min at 4 °C to obtain the sera, which were stored at –80 °C until analysis.
Seven animals received the 1 mg/kg dose of compound 8, and five animals received the 5 mg/kg dose of compound 8. Compound 8 was prepared as a stock solution in 100% MeCN (5 and 10 mg/mL) and kept refrigerated for the duration of the study. The dosages were prepared as follows: based on the animal’s body weight, a calculated volume of compound 8 stock solution was accurately pipetted onto a cubic piece (approx. 50 mg) of sterilized toast (Ölz multigrain toast, Rudolf Ölz Meisterbäcker GmbH & Co KG, Austria), and left to dry at room temperature for 5 min. Subsequently, 25 μL of 50% sucrose in distilled water were added at the same site to mask the bitter taste of compound 8. These dosage units were prepared twice a week during the study and stored in a closed glass petri dish at room temperature until use. […] Compound 8 was administered in this way for 27 days, eliminating the need for repeated handling and injection. The animals were observed daily for general activity level, hair coat quality or other abnormal behavior or clinical signs.
24 h after the last dose was administered, the mice were humanly euthanized under isoflurane inhalation anesthesia (Isoflurin®, VetPharma, Spain) and the blood was withdrawn from the left ventricle using a syringe, collected in a microtube (Eppendorf, Safe-Lock tube, 0.5 mL, Eppendorf AG, Germany) and allowed to clot. After approximately 1 h, the blood was centrifuged at 6000 × g for 15 min at 4 °C to obtain the sera, which were stored at –80 °C until analysis. […] Animal sera (5–10 μL) were diluted in 0.5 mmol/L DTNB in 0.1 mol/L sodium phosphate buffer pH 7.4 (total volume 1000 μL), substrate (5 μL of 100 mmol/L, final concentration 0.5 mmol/L) was added, and the increase in absorbance monitored for 3 min. BChE activity was determined using butyrylthiocholine iodide, while AChE activity was determined on isoOMPA-inhibited sera (buffer-diluted sera were preincubated for 25 min with 1 μL of 100 mmol/L isoOMPA–0.1 mmol/L final concentration) using acetylthiocholine iodide (final concentration 0.5 mmol/L). Measurements were performed in triplicate and pairwise compared before and after treatment for each subject (n = 5 per group).

C57BL/6JRccHsd mice = test: Daily observation during repeated dosing; format: in vivo; details: 1 or 5 mg/kg p.o. daily for 27 days
Procedure: […]. […] Due to the nature of this pilot study, the mice were housed individually.
Seven animals received the 1 mg/kg dose of compound 8, and five animals received the 5 mg/kg dose of compound 8. Compound 8 was prepared as a stock solution in 100% MeCN (5 and 10 mg/mL) and kept refrigerated for the duration of the study. The dosages were prepared as follows: based on the animal’s body weight, a calculated volume of compound 8 stock solution was accurately pipetted onto a cubic piece (approx. 50 mg) of sterilized toast (Ölz multigrain toast, Rudolf Ölz Meisterbäcker GmbH & Co KG, Austria), and left to dry at room temperature for 5 min. Subsequently, 25 μL of 50% sucrose in distilled water were added at the same site to mask the bitter taste of compound 8. These dosage units were prepared twice a week during the study and stored in a closed glass petri dish at room temperature until use. For administration, the toast pieces were placed on the floor of the cage at the same time each day, and left for the animal to eat it voluntarily (the consumption of the dosage was confirmed by observation). Compound 8 was administered in this way for 27 days, eliminating the need for repeated handling and injection. The animals were observed daily for general activity level, hair coat quality or other abnormal behavior or clinical signs.

GSK3β = test: Western blot of APP/PS1 mice brain homogenates, GSK3β; format: in vivo, C57BL/6J-TgN(APP/PS1)ZLFILAS mice; details: 15-day treatment, 1 or 5 mg/kg ip
[1] = Plasma and brain distribution profile in mice; details: 1 mg/kg, intravenous and peroral
Text: Animals All mice used were 9–15 weeks old wild-type BALB/c mice bred in the Laboratory of Animal Genomics at the Faculty of Veterinary Medicine, University of Ljubljana. For intravenous administration, 4 males and one female were additionally purchased from Envigo RMS Holding Corp. Mice were conventionally bred in open polycarbonate cages (Tecniplast, Buguggiate, Italy) and provided with wood chip bedding (Lignocel®, Rettenmaier and Sons, Germany). Mice were kept under standard conditions, i.e., a 12:12 dark–light cycle (LED, CCT 3000 K, ≤ 25 lux above the cage), at temperature 21–24 °C, and 50%–60% humidity. They were fed irradiated rodent diet with minimal levels of phytoestrogens (Teklad global 16% protein rodent diet®, BN 2916, Envigo, Udine, Italy) and had access to drinkable tap water ad libitum.
For each time point, 4 mice, two females and two males, were used. A total of 24 animals were used (n = 24) for each route of administration. […] Peroral administration was performed via flexible plastic feeding tubes (20G × 30 mm, Instech Laboratories, USA) by gavage, with volume dose of 200 μL/20 g body weight. Intravenous administration into the tail vein was performed under isoflurane inhalation anesthesia (Isoflurin®, VetPharma, Spain) using a syringe (INSULIN100, 29G × 1/2″, 12.7 mm, CHINS00329, Chirana T. Injecta, a.s., Slovakia) with a volume dose of 150 μL. […]

T1 sequence (Q03311 30-603): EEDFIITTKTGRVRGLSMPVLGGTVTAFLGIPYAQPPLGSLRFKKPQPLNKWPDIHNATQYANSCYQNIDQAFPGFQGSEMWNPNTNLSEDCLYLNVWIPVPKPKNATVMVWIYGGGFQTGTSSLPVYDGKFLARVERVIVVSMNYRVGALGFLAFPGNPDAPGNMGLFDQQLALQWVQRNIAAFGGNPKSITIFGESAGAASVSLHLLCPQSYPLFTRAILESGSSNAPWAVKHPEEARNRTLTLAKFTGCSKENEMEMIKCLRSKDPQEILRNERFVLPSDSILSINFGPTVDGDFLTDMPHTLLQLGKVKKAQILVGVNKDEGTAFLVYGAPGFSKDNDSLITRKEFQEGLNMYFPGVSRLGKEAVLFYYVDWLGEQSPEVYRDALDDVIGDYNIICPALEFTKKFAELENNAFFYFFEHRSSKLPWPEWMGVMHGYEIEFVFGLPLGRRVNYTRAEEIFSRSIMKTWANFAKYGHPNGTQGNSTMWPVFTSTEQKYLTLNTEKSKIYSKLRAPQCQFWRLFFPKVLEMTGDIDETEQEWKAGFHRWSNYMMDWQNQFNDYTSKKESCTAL

SMILES: CCN(CC)C(=O)n1cnc(C2(CC)Cc3ccccc3C2)c1 [Compound 8, N,N-Diethyl-4-(2-ethylindan-2-yl)-1H-imidazole-1-carboxamide]
- BChE residual activity, AVERAGE (BChE; 1 mg/kg p.o. once a day for 4 weeks, compared to before treatment, 1 mg/kg): 21%±6%
- BChE activity AFTER treatment (BChE; 1 mg/kg p.o. once a day, individual animals, 1 mg/kg): 0.2139±0.0118 U/mL and 0.1602±0.0041 U/mL and 0.1484±0.0071 U/mL and 0.2261±0.0071 U/mL and 0.2214±0.0082 U/mL
- BChE residual activity (BChE; 1 mg/kg p.o. once a day, individual animals, after vs before treatment, 1 mg/kg): 27.0%±4.2% and 15.9%±1.1% and 19.4%±1.8% and 20.1%±2.4%
- BChE residual activity, AVERAGE (BChE; 5 mg/kg p.o. once a day for 4 weeks, compared to before treatment, 5 mg/kg): 10%±5%
- BChE activity AFTER treatment (BChE; 5 mg/kg p.o. once a day, individual animals, 5 mg/kg): 0.1060±0.0071 U/mL and 0.0989±0.0071 U/mL and 0.0801±0.0268 U/mL and 0.0683±0.0108 U/mL and 0.0919±0.0000 U/mL
- BChE residual activity (BChE; 5 mg/kg p.o. once a day, individual animals, after vs before treatment, 5 mg/kg): 10.6%±1.7% and 6.9%±2.9% and 12.1%±2.7% and 10.8%±2.1%
- remaining activity at 1 mg/kg (BChE; 1 mg/kg p.o. once a day for 4 weeks, compared to before treatment, read-out: BChE residual activity, AVERAGE): 20.6%
- remaining activity at 1 mg/kg (BChE; 1 mg/kg p.o. once a day, individual animals, after vs before treatment, read-out: BChE residual activity): 20.3%
- remaining activity at 5 mg/kg (BChE; 5 mg/kg p.o. once a day for 4 weeks, compared to before treatment, read-out: BChE residual activity, AVERAGE): 10.1%
- remaining activity at 5 mg/kg (BChE; 5 mg/kg p.o. once a day, individual animals, after vs before treatment, read-out: BChE residual activity): 10.1%
- adverse effects on repeated dosing (C57BL/6JRccHsd mice): No adverse effects were observed
- phosphorylation of GSK3β in whole brain homogenates (GSK3β): increased phosphorylation of GSK3β
- blood–brain barrier permeation [1]: quickly permeated the blood–brain barrier
